Measured values from US8017612B2, “Piperazine compound and use thereof as a HCV polymerase inhibitor” (priority 2006, dated 2011).
Where a name gives a salt, the structure may show the parent alone.

Key:
[1] = target: T1, HCV polymerase (NS5B) type 1b (Hepatitis C virus genotype 1b, UniProt P26663); experiment: Assay of enzyme (HCV polymerase) inhibitory activity, type 1b enzyme; type: biochemical, HCV BK strain (type 1b)
T1 construct: a region encoding NS5B (J Virol 1991 March, 65(3), 1105-13, 544 amino acids after deletion of 47 amino acids on the C-terminal); 6xHis (C); made in house; host or cells: Escherichia coli
In short: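 His-tagged, C-terminally truncated NS5B (BK strain, 1b; 0.5 μg/ml) incubated with compound 60 min at 25 °C on 3′UTR-derived substrate RNA (5 μg/ml), 50 μM ATP/GTP/CTP, 2 μM UTP plus [3H]UTP, pH 7.5. Acid-precipitated RNA counted; IC50 from radioactivity with and without compound.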

[2] = target: T2, HCV polymerase (NS5B) type 1a (Hepatitis C virus genotype 1a, UniProt P26664); experiment: Assay of enzyme (HCV polymerase) inhibitory activity, type 1a enzyme; type: biochemical, HCV type 1a (cloned from the blood of patients)
T2 construct: made in house; host or cells: Escherichia coli (by the 'similar method' of the 1b enzyme)
In short: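 His-tagged NS5B, C-terminal 47 residues deleted, type 1a at 1.5 μg/ml, with 5 μg/ml HCV 3′UTR substrate RNA, 50 μM ATP/GTP/CTP, 2 μM UTP plus [3H]UTP, pH 7.5 Tris, 5 mM MgCl2; 60 min at 25° C. TCA-precipitated RNA counted by scintillation; IC50 from radioactivity with vs. without compound.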

[3] = HCV polymerase inhibitory activity IC50, 1b, type 1b enzyme
[4] = HCV polymerase inhibitory activity IC50, 1a, type 1a enzyme
[5] = HCV polymerase inhibitory activity (IC50), 1b, type 1b enzyme 0.5 μg/ml, 25° C., 60 min
[6] = HCV polymerase inhibitory activity (IC50), 1a, type 1a enzyme 1.5 μg/ml, 25° C., 60 min

Compound	IC50 [1, 3] [nM]	IC50 [2, 4] [nM]	IC50 [1, 5] [nM]	IC50 [2, 6] [nM]
Cc1ncc2sc(N3CCN(S(=O)(=O)c4ccc(OC(F)(F)C(F)F)cc4)[C@@H](C(=O)NCc4ccc(OC(F)(F)F)cc4)C3)nc2n1 [Example 1051, (R)-4-(5-methyl-thiazolo[4,5-d]pyrimidin-2-yl)-1-[4-(1,1,2,2-tetrafluoro-ethoxy)-benzenesulfonyl]-piperazine-2-carboxylic acid 4-trifluoromethoxy-benzylamide]	< 100	< 100	–	–
CC(=O)N1CCN(S(=O)(=O)c2ccc3c(c2)CCO3)C(C(=O)NCc2ccc(C(F)(F)F)cc2)C1 (stereo not shown) [Example 48, 4-acetyl-1-(2,3-dihydro-benzofuran-5-sulfonyl)-piperazine-2-carboxylic acid 4-trifluoromethyl-benzylamide]	–	–	> 1000	> 1000
CN(C)c1ccc(CNC(=O)C2CN(C(=O)CN3CCCCC3)CCN2S(=O)(=O)c2ccc(I)cc2)cc1 (stereo not shown) [Example 102, 1-(4-iodo-benzenesulfonyl)-4-(2-piperidin-1-yl-acetyl)-piperazine-2-carboxylic acid 4-dimethylamino-benzylamide]	–	–	> 1000	> 1000
Cc1nnc(Cl)c2sc(N3CCN(S(=O)(=O)c4ccc(OC(F)(F)F)cc4)[C@@H](C(=O)NCc4ccc(OC(F)(F)F)cc4)C3)nc12 [Example 906, (R)-4-(7-chloro-4-methyl-thiazolo[4,5-d]pyridazin-2-yl)-1-(4-trifluoromethoxy-benzenesulfonyl)-piperazine-2-carboxylic acid 4-trifluoromethoxy-benzylamide]	< 100	< 100	–	–
CCCc1ccc(CNC(=O)[C@H]2CN(c3cnc4cnccc4n3)CCN2S(=O)(=O)c2ccc(I)cc2)cc1 [Example 777, (R)-1-(4-iodo-benzenesulfonyl)-4-pyrido[3,4-b]pyrazin-2-yl-piperazine-2-carboxylic acid 4-propyl-benzylamide]	< 100	< 100	–	–
CC(C)(O)c1ncc2sc(N3CCN(S(=O)(=O)c4ccc(C(F)(F)F)cc4)[C@@H](C(=O)NCc4ccc(OC(F)(F)F)cc4)C3)nc2n1 [Example 1075, (R)-4-[5-(1-hydroxy-1-methyl-ethyl)-thiazolo[4,5-d]pyrimidin-2-yl]-1-(4-trifluoromethyl-benzenesulfonyl)-piperazine-2-carboxylic acid 4-trifluoromethoxy-benzylamide]	< 100	< 100	–	–
O=C(NCc1ccc(OC(F)F)cc1)[C@H]1CN(c2nc3nc(Cl)ncc3s2)CCN1S(=O)(=O)c1ccc(C(F)(F)F)cc1 [Example 968, (R)-4-(5-chloro-thiazolo[4,5-d]pyrimidin-2-yl)-1-(4-trifluoromethyl-benzenesulfonyl)-piperazine-2-carboxylic acid 4-difluoromethoxy-benzylamide]	< 100	< 100	–	–
CCCc1ccc(CNC(=O)[C@H]2CN(c3nc(CO)cs3)CCN2S(=O)(=O)c2ccc(OC(F)(F)F)cc2)cc1 [Example 510, (R)-4-(4-hydroxymethyl-thiazol-2-yl)-1-(4-trifluoromethoxy-benzenesulfonyl)-piperazine-2-carboxylic acid 4-propyl-benzylamide]	–	–	< 100	< 100
CCCc1ccc(CNC(=O)[C@H]2CN(C(=O)Nc3ccccc3C(=O)O)CCN2S(=O)(=O)c2ccc(OC(F)(F)F)cc2)cc1 [Example 838, 2-{[(R)-3-(4-propyl-benzylcarbamoyl)-4-(4-trifluoromethoxy-benzenesulfonyl)-piperazine-1-carbonyl]-amino}-benzoic acid]	> 1000	> 1000	–	–
CC(=O)N1CCN(S(=O)(=O)c2cc3ccccc3s2)C(C(=O)NCc2ccc(C(F)(F)F)cc2)C1 (stereo not shown) [Example 74, 4-acetyl-1-(benzo[b]thiophene-2-sulfonyl)-piperazine-2-carboxylic acid 4-trifluoromethyl-benzylamide]	–	–	> 1000	> 1000
CCC(F)(F)c1ccc(CNC(=O)[C@H]2CN(C(=O)Nc3nnc(C)s3)CCN2S(=O)(=O)c2ccc(OC(F)(F)F)cc2)cc1 [Example 488, (R)-4-(4-trifluoromethoxy-benzenesulfonyl)-piperazine-1,3-dicarboxylic acid 3-[4-(1,1-difluoro-propyl)-benzylamide] 1-[(5-methyl-[1,3,4]thiadiazol-2-yl)-amide]]	–	–	< 100	100 to 1000
CN(C)C(=O)c1cncc2ncc(N3CCN(S(=O)(=O)c4ccc(OC(F)(F)F)cc4)[C@@H](C(=O)NCc4ccc(OC(F)(F)F)cc4)C3)nc12 [Example 866, 2-[(R)-4-(4-trifluoromethoxy-benzenesulfonyl)-3-(4-trifluoromethoxy-benzylcarbamoyl)-piperazin-1-yl]-pyrido[3,4-b]pyrazine-8-carboxylic acid dimethylamide]	< 100	< 100	–	–
CC(=O)N1CCN(S(=O)(=O)c2ccc(C(C)C)cc2)[C@@H](C(=O)NCc2ccc(C(C)C)cc2F)C1 [Example 292, (R)-4-acetyl-1-(4-isopropyl-benzenesulfonyl)-piperazine-2-carboxylic acid 2-fluoro-4-isopropyl-benzylamide]	–	–	< 100	100 to 1000
COC(=O)c1nc(Cl)c(N2CCN(S(=O)(=O)c3ccc(C(F)(F)F)cc3)[C@@H](C(=O)NCc3ccc(C(C)C)cc3)C2)nc1Br [Example 421, (R)-6′-bromo-3′-chloro-3-(4-isopropyl-benzylcarbamoyl)-4-(4-trifluoromethyl-benzenesulfonyl)-3,4,5,6-tetrahydro-2H-[1,2′]bipyrazinyl-5′-carboxylic acid methyl ester]	–	–	> 1000	> 1000
COc1ccc(CCNC(=O)[C@H]2CN(C(C)=O)CCN2S(=O)(=O)c2ccc(C(C)C)cc2)cc1 [Example 392, (R)-4-acetyl-1-(4-isopropyl-benzenesulfonyl)-piperazine-2-carboxylic acid [2-(4-methoxy-phenyl)-ethyl]-amide]	–	–	> 1000	> 1000
CCCc1ccc(CNC(=O)[C@H]2CN(c3cnc4cncc(C(=O)O)c4n3)CCN2S(=O)(=O)c2ccc(Cl)cc2)cc1 [Example 845, 2-[(R)-4-(4-chloro-benzenesulfonyl)-3-(4-propyl-benzylcarbamoyl)-piperazin-1-yl]-pyrido[3,4-b]pyrazine-8-carboxylic acid]	< 100	< 100	–	–
CC(=O)N1CCN(S(=O)(=O)c2ccc(C(C)C)cc2)[C@@H](C(=O)NCCc2c[nH]cn2)C1 [Example 433, (R)-4-acetyl-1-(4-isopropyl-benzenesulfonyl)-piperazine-2-carboxylic acid [2-(1H-imidazol-4-yl)-ethyl]-amide hydrochloride]	–	–	> 1000	> 1000
CCC(F)(F)c1ccc(CNC(=O)[C@H]2CN(C(=O)Cn3nnc(N)n3)CCN2S(=O)(=O)c2ccc(OC(F)(F)F)cc2)cc1 [Example 1096, (R)-4-[2-(5-amino-tetrazol-2-yl)-acetyl]-1-(4-trifluoromethoxy-benzenesulfonyl)-piperazine-2-carboxylic acid 4-(1,1-difluoro-propyl)-benzylamide]	< 100	< 100	–	–
CC(C)c1ccc(S(=O)(=O)N2CCN(S(C)(=O)=O)CC2C(=O)NCc2ccc(C(F)(F)F)cc2)cc1 (stereo not shown) [Example 17, 1-(4-isopropyl-benzenesulfonyl)-4-methanesulfonyl-piperazine-2-carboxylic acid 4-trifluoromethyl-benzylamide]	–	–	> 1000	> 1000
O=C(NCc1ccc(OC(F)(F)F)cc1)[C@H]1CN(c2nc3nc(C4CC4)ncc3s2)CCN1S(=O)(=O)c1ccc(OC(F)(F)F)cc1 [Example 975, (R)-4-(5-cyclopropyl-thiazolo[4,5-d]pyrimidin-2-yl)-1-(4-trifluoromethoxy-benzenesulfonyl)-piperazine-2-carboxylic acid 4-trifluoromethoxy-benzylamide]	< 100	< 100	–	–
O=C(NCc1ccc(OC(F)F)c(F)c1)[C@H]1CN(c2nc3nc(C4CC4)[nH]c(=O)c3s2)CCN1S(=O)(=O)c1ccc(C(F)(F)F)cc1 [Example 1114, (R)-4-(5-cyclopropyl-7-oxo-6,7-dihydro-thiazolo[4,5-d]pyrimidin-2-yl)-1-(4-trifluoromethyl-benzenesulfonyl)-piperazine-2-carboxylic acid 4-difluoromethoxy-3-fluoro-benzylamide]	< 100	< 100	–	–
COCCc1ncc2sc(N3CCN(S(=O)(=O)c4ccc(OC(F)(F)F)cc4)[C@@H](C(=O)NCc4ccc(OC(F)(F)F)cc4)C3)nc2n1 [Example 1070, (R)-4-[5-(2-methoxy-ethyl)-thiazolo[4,5-d]pyrimidin-2-yl]-1-(4-trifluoromethoxy-benzenesulfonyl)-piperazine-2-carboxylic acid 4-trifluoromethoxy-benzylamide]	< 100	< 100	–	–
Cc1nnn(CC(=O)N2CCN(S(=O)(=O)c3ccc(OC(F)(F)F)cc3)[C@@H](C(=O)NCc3ccc(C(F)(F)C(F)(F)F)cc3)C2)n1 [Example 551, (R)-4-[2-(5-methyl-tetrazol-2-yl)-acetyl]-1-(4-trifluoromethoxy-benzenesulfonyl)-piperazine-2-carboxylic acid 4-pentafluoroethyl-benzylamide]	–	–	100 to 1000	100 to 1000
